From patent publication US20190336490A1, “COMPOSITIONS AND METHODS FOR INCREASING REMYELINATION” (Frequency Therapeutics, Inc., priority 2018, published 2019)

What was measured:
[1] = target: T1, muscarinic M1 receptor (Homo sapiens, UniProt P11229); settings: cited from earlier work
T1 sequence (P11229 1-460): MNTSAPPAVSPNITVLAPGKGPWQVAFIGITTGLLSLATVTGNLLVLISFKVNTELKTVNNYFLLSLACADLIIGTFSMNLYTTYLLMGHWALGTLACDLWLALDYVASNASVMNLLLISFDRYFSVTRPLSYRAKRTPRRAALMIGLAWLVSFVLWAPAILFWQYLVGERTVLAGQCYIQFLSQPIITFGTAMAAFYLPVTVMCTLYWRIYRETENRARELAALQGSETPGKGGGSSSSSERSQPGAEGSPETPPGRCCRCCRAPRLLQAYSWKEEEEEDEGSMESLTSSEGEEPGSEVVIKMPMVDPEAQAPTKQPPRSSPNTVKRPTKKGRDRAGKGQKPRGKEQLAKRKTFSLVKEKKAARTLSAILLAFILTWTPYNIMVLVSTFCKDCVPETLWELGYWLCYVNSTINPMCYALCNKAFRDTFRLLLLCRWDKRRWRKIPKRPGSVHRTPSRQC

[2] = tested on: OPC (oligodendrocyte precursor cell); assay: OPC Cell Activity; assay type: cell-based
[3] = tested on: Rat primary optic nerve oligodendrocyte progenitor cells (OPCs); assay: OPC differentiation assay (MBP staining); assay type: cell-based; settings: 6 days

In the case of `CCN(CC)CC1CCCCN1CC(=O)N1c2ccccc2C(=O)Nc2cccnc21` (stereo not shown) [AF-DX 116], the “In vitro M1 (Conc)” value [1] is listed as 417 nM.
For `O=C(O[C@H]1C[N+]2(CCCOc3ccccc3)CCC1CC2)C(O)(c1cccs1)c1cccs1` [Aclidinium bromide], the “In vitro M1 (Conc)” value [1] is given as 0.10 nM.
In the case of `CC(CN(C)C)CN1c2ccccc2Sc2ccccc21` (stereo not shown) [Alimemazine], the “In vitro M1 (Conc)” value [1] is given as 398 nM.
For `CN1[C@@H]2CC[C@H]1C[C@@H](OC(=O)C(CO)c1ccccc1)C2` (stereo partly shown) [Atropine], the “OPC Cell Activity” value ([2]; Table 1) was 5700 nM.
For `CN1CCCC(n2nc(Cc3ccc(Cl)cc3)c3ccccc3c2=O)CC1` (stereo not shown) [Azelastine], the “In vitro M1 (Conc)” value [1] is given as 4,200 nM.
For `CN1[C@@H]2CC[C@H]1C[C@@H](OC(c1ccccc1)c1ccccc1)C2` [Benztropine], the “OPC Cell Activity” value ([2]; Table 1) was 170 to 350 nM.
In the case of `C[N+]1(C)CCCCC1COC(=O)C(O)(c1ccccc1)c1ccccc1` (stereo not shown) [Bevonium], the “OPC Cell Activity” value ([2]; Table 1, in words) is reported as “Active”.
In the case of `OC(CCN1CCCCC1)(c1ccccc1)C1CC2C=CC1C2` (stereo not shown) [Biperiden], the “In vitro M1 (Conc)” value [1] is given as 0.85 nM.
For `CN(C)CCOC(c1ccc(Cl)cc1)c1ccccn1` (stereo not shown) [Carbinoxamine], the “In vitro M1 (Conc)” value [1] is listed as 740 nM.
For `CN(C)CCCN1c2ccccc2Sc2ccc(Cl)cc21` [Chlorpromazine], the “OPC Cell Activity” value ([2]; Table 1, in words) was “Active”.
With `Clc1ccc(Cn2c(CN3CCCC3)nc3ccccc32)cc1` [Clemizole] the “OPC Cell Activity” value ([2]; Table 2, in words) was “Active”.
With `NC(=NCc1ccc(Cl)cc1)SCCCc1cnc[nH]1` [Clobenpropit] the “OPC Cell Activity” value ([2]; Table 2) was 125 nM.
In the case of `CC(CN(C)C)CN1c2ccccc2Sc2ccc(C#N)cc21` (stereo not shown) [Cyamemazine], the “In vitro M1 (Conc)” value [1] is listed as 11 nM.
With `NC(=O)C(c1ccccc1)(c1ccccc1)[C@@H]1CCN(CCc2ccc3c(c2)CCO3)C1` [Darifenacin] the “OPC Cell Activity” value ([2]; Table 1, in words) was “Active”.
For `CC(C1=C(CCN(C)C)Cc2ccccc21)c1ccccn1` (stereo not shown) [Dimetindene], the “In vitro M1 (Conc)” value [1] is listed as 320 nM.
For `CN1CCC(OC(c2ccccc2)c2ccccc2)CC1` [Diphenylpyraline], the “OPC Cell Activity” value ([2]; Table 1, in words) was “Active”.
In the case of `CN(C)CCC[C@@]1(c2ccc(F)cc2)OCc2cc(C#N)ccc21` [Escitalopram], the “OPC Cell Activity” value ([2]; Table 1, in words) is reported as “Active”.
For `O=C1CCCN1c1ccc(Oc2ccc3c(c2)CCN(C2CCC2)CC3)nc1` [GSK-239512], the “OPC Cell Activity” value ([2]; Table 2) was 120 to 160 nM.
For `c1cc2c(cc1-c1noc(CC3CCN(C4CCC4)CC3)n1)OCO2` [GSK-247246], the “OPC Cell Activity” value ([2]; Table 2) was 25 to 100 nM.
For `C[N+]1(C)CCC(OC(=O)C(O)(c2ccccc2)C2CCCC2)C1` (stereo not shown) [Glycopyrronium bromide], the “In vitro M1 (Conc)” value [1] is listed as 0.42 nM.
For `CN1CCCN(C(c2ccccc2)c2ccc(Cl)cc2)CC1` (stereo not shown) [Homochlorcyclizine], the “In vitro M1 (Conc)” value [1] is given as 22 nM.
In the case of `OCCOCCN1CCN(C(c2ccccc2)c2ccc(Cl)cc2)CC1` (stereo not shown) [Hydroxyzine], the “In vitro M1 (Conc)” value [1] is listed as 3,800 nM and the “OPC Cell Activity” value ([2]; Table 1, in words) is listed as “Active”.
With `CN1[C@@H]2CC[C@H]1C[C@@H](OC(=O)[C@H](CO)c1ccccc1)C2` [Hyoscyamine] the “OPC Cell Activity” value ([2]; Table 1, in words) was “Active”.
For `CC(C)[N+]1(C)[C@@H]2CC[C@H]1C[C@@H](OC(=O)C(CO)c1ccccc1)C2` (stereo partly shown) [Ipratropium], the “In vitro M1 (Conc)” value [1] is given as 1.31 nM and the “OPC Cell Activity” value ([2]; Table 1, in words) is given as “Active”.
For `C[C@@H]1CCCN1CCCOc1ccc(-c2ccc(=O)[nH]n2)cc1` [Irdabisant], the “OPC Cell Activity” value ([2]; Table 2) was 250 nM.
In the case of `CC(CN1c2ccccc2Sc2cccnc21)N(C)C` (stereo not shown) [Isothipendyl], the “In vitro M1 (Conc)” value [1] is listed as 74 nM.
In the case of `CN(CCCN1c2ccccc2CCc2ccccc21)CC(=O)c1ccc(Cl)cc1` [Lofepramine], the “In vitro M1 (Conc)” value [1] is given as 67 nM.
For `CN1CCc2c(c3ccccc3n2Cc2ccccc2)C1` [Mebhydrolin], the “In vitro M1 (Conc)” value [1] is given as 180 nM.
In the case of `C[N+]1(C)CCCC(OC(=O)C(O)(c2ccccc2)c2ccccc2)C1` (stereo not shown) [Mepenzolate], the “In vitro M1 (Conc)” value [1] is listed as 27 nM and the “OPC Cell Activity” value ([2]; Table 1, in words) is listed as “Active”.
For `c1ccc2c(c1)Sc1ccccc1N2CC1CN2CCC1CC2` (stereo not shown) [Mequitazine], the “In vitro M1 (Conc)” value [1] is given as 5.0 nM.
In the case of `CN1CCCCC1CCN1c2ccccc2Sc2ccc([S+](C)[O-])cc21` (stereo not shown) [Mesoridazine], the “In vitro M1 (Conc)” value [1] is listed as 10 nM.
With `C[N+]1(C)[C@@H]2CC[C@H]1C[C@@H](OC(=O)C(CO)c1ccccc1)C2` (stereo partly shown) [Methylatropine] the “OPC Cell Activity” value ([2]; Table 1, in words) was “Active”.
In the case of `CCCC(CCC)C(=O)O[C@H]1C[C@H]2CC[C@@H](C1)[N+]2(C)C` [Octatropine methylbromide], the “OPC Cell Activity” value ([2]; Table 1, in words) is reported as “Active”.
In the case of `CCCCCCCCOc1ccccc1C(=O)Nc1ccc(C(=O)OCC[N+](C)(CC)CC)cc1` [Octylonium bromide], the “In vitro M1 (Conc)” value [1] is given as 2 nM and the “OPC Cell Activity” value ([2]; Table 1, in words) is given as “Active”.
In the case of `CCN(CC)CC#CCOC(=O)C(O)(c1ccccc1)C1CCCCC1` (stereo not shown) [Oxybutynin], the “OPC Cell Activity” value ([2]; Table 1) is reported as 670 nM.
In the case of `CCN(CC)CCOCCOC(=O)C1(c2ccccc2)CCCC1` [Pentoxyverine, carbetapentane, Pentoxyverine], the “In vitro M1 (Conc)” value [1] is given as 13 to 76 nM and the “OPC Cell Activity” value ([2]; Table 1) is given as 260 nM.
For `CCN1CCCC(OC(=O)C(c2ccccc2)c2ccccc2)C1` (stereo not shown) [Piperidolate], the “OPC Cell Activity” value ([2]; Table 1, in words) was “Active”.
With `Clc1ccc(CCCOCCCN2CCCCC2)cc1` [Pitolisant (tiprolisant), Pitolisant] the “OPC Cell Activity” value ([2]; Table 2) was 14 to 100 nM, the “dose sparing activity with respect to the other agent” value ([3]; clemastine fumarate 0 to 5 μM combined with pitolisant hydrochloride 0 to 2 μM) was “dose sparing activity” and the “OPC differentiation (% of MBP+ cells)” value ([3]; pitolisant hydrochloride alone, 0 to 2 μM) was “induce OPC differentiation”.
In the case of `CCCNCC(O)COc1ccccc1C(=O)CCc1ccccc1` (stereo not shown) [Propafenone], the “OPC Cell Activity” value ([2]; Table 1, in words) is reported as “Active”.
For `CC(C)[N+](C)(CCOC(=O)C1c2ccccc2Oc2ccccc21)C(C)C` [Propantheline], the “In vitro M1 (Conc)” value [1] is listed as 0.22 nM and the “OPC Cell Activity” value ([2]; Table 1) is listed as 1250 to 2950 nM.
For `CCCOC(C(=O)OC1CCN(C)CC1)(c1ccccc1)c1ccccc1` [Propiverine], the “In vitro M1 (Conc)” value [1] is given as 619 nM and the “OPC Cell Activity” value ([2]; Table 1) is given as 420 nM.
With `OCCOCCN1CCN(C2=Nc3ccccc3Sc3ccccc32)CC1` [Quetiapine] the “OPC Cell Activity” value ([2]; Table 1, in words) was “Active”.
With `CN1[C@@H]2C[C@@H](OC(=O)[C@H](CO)c3ccccc3)C[C@H]1[C@@H]1O[C@@H]12` [Scopolamine] the “OPC Cell Activity” value ([2]; Table 1) was 5100 nM.
In the case of `O=C(O[C@H]1CN2CCC1CC2)N1CCc2ccccc2[C@@H]1c1ccccc1` [Solifenacin], the “In vitro M1 (Conc)” value [1] is listed as 25 nM and the “OPC Cell Activity” value ([2]; Table 1, in words) is listed as “Active”.
In the case of `C[N+]1(C)[C@@H]2C[C@@H](OC(=O)C(O)(c3cccs3)c3cccs3)C[C@H]1[C@@H]1O[C@@H]12` [Tiotropium bromide], the “In vitro M1 (Conc)” value [1] is given as 0.13 nM and the “OPC Cell Activity” value ([2]; Table 1, in words) is given as “Active”.
In the case of `Cc1ccc(O)c([C@H](CCN(C(C)C)C(C)C)c2ccccc2)c1` [Tolterodine], the “In vitro M1 (Conc)” value [1] is given as 190 nM.
With `OC(CCN1CCCCC1)(c1ccccc1)C1CCCCC1` (stereo not shown) [Trihexyphenidyl] the “OPC Cell Activity” value ([2]; Table 1, in words) was “Active”.
In the case of `CN(C)CCN(Cc1ccccc1)c1ccccn1` [Tripelennamine], the “In vitro M1 (Conc)” value [1] is listed as 1,3000 nM and the “OPC Cell Activity” value ([2]; Table 1, in words) is listed as “Active”.
For `Cc1ccc(/C(=C\CN2CCCC2)c2ccccn2)cc1` [Triprolidine], the “In vitro M1 (Conc)” value [1] is given as 15000 nM.
In the case of `O=C(CCNS(=O)(=O)c1cccc2nsnc12)N1CCN(c2ccncc2)CC1` [VU0409774], the “In vitro M1 (Conc)” value [1] is given as 690 nM.
In the case of `Cc1noc(C)c1S(=O)(=O)N1CCN(c2ccc(N3CCCC(C)(C)C3)nn2)CC1` [VU6009833], the “In vitro M1 (Conc)” value [1] is given as 288 nM.
With Aminobenzotropine the “OPC Cell Activity” value ([2]; Table 1, in words) was “Active”.
